Test results published in ChEMBL document CHEMBL1201862, “PubChem BioAssay data set” (2004).
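Five concentrations, 48 hours, 96-well plates. GI50: concentration for 50% inhibition of growth.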 Active and inactive are the calls of the source. No stated cut-off is given here; in the data, active = GI50 up to about 1.1 µM and inactive = higher.

Assays:
Test in all cases: NCI anticancer screen, dose series, 48 h
NCI-H226 = tested on: NCI-H226
RXF 393 = tested on: RXF 393
SNB-75 = tested on: SNB-75
EKVX = tested on: EKVX
SK-OV-3 = tested on: SK-OV-3
OVCAR-5 = tested on: OVCAR-5
MDA-MB-231 = tested on: MDA-MB-231
MDA-MB-435 = tested on: MDA-MB-435
UACC-257 = tested on: UACC-257
MOLT-4 = tested on: MOLT-4
T47D = tested on: T47D
SK-MEL-5 = tested on: SK-MEL-5
NCI/ADR-RES = tested on: NCI/ADR-RES
COLO 205 = tested on: COLO 205
K562 = tested on: K562
SF-268 = tested on: SF-268
BT-549 = tested on: BT-549
TK-10 = tested on: TK-10
SF-539 = tested on: SF-539
HOP-92 = tested on: HOP-92

Measured: GI50

O=C(O)Cc1ccc(Oc2nc3ccccc3nc2-c2ccccc2)cc1
inactive: NCI-H226 30.5 µM | RXF 393 29.2 µM | SNB-75 > 100 µM | EKVX 27.7 µM | SK-OV-3 > 100 µM | OVCAR-5 > 100 µM | MDA-MB-231 58.1 µM | MDA-MB-435 86.1 µM | UACC-257 > 100 µM | MOLT-4 86.9 µM | T47D > 100 µM | SK-MEL-5 59.6 µM | NCI/ADR-RES 99.5 µM | COLO 205 48.4 µM | K562 97.9 µM | SF-268 44.5 µM | BT-549 37 µM | TK-10 97.9 µM | SF-539 60.5 µM

CN1CCC2(CC1)C(=O)N(NC(N)=O)C(=O)C2c1ccccc1 (stereo not given)
inactive: NCI-H226 > 100 µM | RXF 393 > 100 µM | SNB-75 > 100 µM | EKVX > 100 µM | SK-OV-3 > 100 µM | OVCAR-5 > 100 µM | MDA-MB-231 > 100 µM | MDA-MB-435 > 100 µM | UACC-257 > 100 µM | MOLT-4 > 100 µM | T47D > 100 µM | SK-MEL-5 > 100 µM | NCI/ADR-RES > 100 µM | COLO 205 > 100 µM | K562 > 100 µM | SF-268 > 100 µM | BT-549 > 100 µM | TK-10 > 100 µM | SF-539 > 100 µM

O=[N+]([O-])c1ccc(N2N=C(c3ccc4ccccc4c3O)CC2c2ccc(Cl)cc2Cl)c([N+](=O)[O-])c1 (stereo not given)
inactive: NCI-H226 49.1 µM | RXF 393 25.4 µM | SNB-75 92.7 µM | EKVX 37.3 µM | SK-OV-3 47.8 µM | OVCAR-5 37.2 µM | MDA-MB-231 30.9 µM | MDA-MB-435 29.5 µM | UACC-257 48.9 µM | MOLT-4 14.9 µM | T47D 27.7 µM | SK-MEL-5 29.1 µM | NCI/ADR-RES 28.6 µM | COLO 205 44.7 µM | K562 15.4 µM | SF-268 53.1 µM | BT-549 49.1 µM | TK-10 63 µM | SF-539 25.6 µM

NC(Cc1ccc(S(=O)(=O)O)cc1)C(=O)NC(Cc1ccc(S(=O)(=O)O)cc1)C(=O)NC(Cc1ccc(S(=O)(=O)O)cc1)C(=O)NC(Cc1ccc(S(=O)(=O)O)cc1)C(=O)O (stereo not given)
inactive: NCI-H226 > 100 µM | RXF 393 > 100 µM | SNB-75 > 100 µM | EKVX > 100 µM | SK-OV-3 > 100 µM | OVCAR-5 > 100 µM | MDA-MB-231 > 100 µM | MDA-MB-435 > 100 µM | UACC-257 > 100 µM | MOLT-4 > 100 µM | T47D > 100 µM | SK-MEL-5 > 100 µM | NCI/ADR-RES > 100 µM | COLO 205 > 100 µM | SF-268 > 100 µM | BT-549 > 100 µM | TK-10 > 100 µM | SF-539 > 100 µM

CC(=O)O[C@H]1CC[C@@]2(C)C(=CC[C@@H]3[C@@H]2CC[C@]2(C)NC(=O)/C(=C\c4ccccc4)C[C@@H]32)C1
inactive: NCI-H226 18.3 µM | RXF 393 13 µM | SNB-75 19.1 µM | EKVX 14.9 µM | SK-OV-3 20.9 µM | OVCAR-5 17.7 µM | MDA-MB-231 22.6 µM | MDA-MB-435 14.8 µM | UACC-257 17.5 µM | MOLT-4 > 100 µM | T47D 13.5 µM | SK-MEL-5 10.8 µM | NCI/ADR-RES 24.5 µM | COLO 205 17.1 µM | K562 > 100 µM | SF-268 19.6 µM | BT-549 18.6 µM | TK-10 29.9 µM | SF-539 16.1 µM

Cc1cccc2c1Oc1cc(Cl)ccc1C2NC(=O)CCN1CCCCC1 (stereo not given)
inactive: SNB-75 14.5 µM | EKVX 20.7 µM | OVCAR-5 17.8 µM | HOP-92 2.02 µM | MDA-MB-231 20.6 µM | MDA-MB-435 16 µM | UACC-257 16 µM | MOLT-4 16.1 µM | T47D 13.1 µM | SK-MEL-5 14.9 µM | NCI/ADR-RES 15.5 µM | COLO 205 15 µM | K562 15.1 µM | SF-268 26.2 µM | BT-549 18.7 µM | TK-10 15.8 µM | SF-539 16.7 µM

O=C1c2cc([N+](=O)[O-])cnc2S(=O)(=O)N1c1ccc(Br)cc1
inactive: NCI-H226 > 100 µM | SNB-75 > 100 µM | EKVX > 100 µM | SK-OV-3 > 100 µM | OVCAR-5 > 100 µM | HOP-92 > 100 µM | MDA-MB-231 > 100 µM | MDA-MB-435 > 100 µM | UACC-257 > 100 µM | MOLT-4 > 100 µM | T47D > 100 µM | SK-MEL-5 > 100 µM | NCI/ADR-RES > 100 µM | COLO 205 > 100 µM | SF-268 > 100 µM | BT-549 > 100 µM | TK-10 > 100 µM | SF-539 > 100 µM

Cc1ccc(F)c2[nH]c(-c3ccccc3)cc(=O)c12
inactive: NCI-H226 40.1 µM | RXF 393 3.58 µM | SNB-75 6.18 µM | EKVX > 25.2 µM | SK-OV-3 5.43 µM | OVCAR-5 9.1 µM | MDA-MB-231 20.9 µM | MDA-MB-435 1.18 µM | UACC-257 58.5 µM | MOLT-4 3.94 µM | T47D 11.3 µM | SK-MEL-5 2.75 µM | NCI/ADR-RES 3.82 µM | COLO 205 6.81 µM | K562 2.23 µM | SF-268 14.5 µM | BT-549 7.06 µM | TK-10 14.6 µM | SF-539 4.34 µM

O=C1OC(=O)c2cc(S(=O)(=O)c3ccc4c(c3)C(=O)OC4=O)ccc21
inactive: NCI-H226 > 100 µM | RXF 393 > 100 µM | SNB-75 26.1 µM | EKVX > 100 µM | SK-OV-3 > 100 µM | OVCAR-5 > 100 µM | MDA-MB-231 > 100 µM | MDA-MB-435 > 100 µM | UACC-257 > 100 µM | T47D > 100 µM | SK-MEL-5 > 100 µM | NCI/ADR-RES > 100 µM | COLO 205 > 100 µM | K562 > 100 µM | SF-268 > 100 µM | BT-549 > 100 µM | TK-10 > 100 µM | SF-539 > 100 µM

COc1ccc(N2C(=O)C3c4[nH]c5c(C)cccc5c4C4CCC(c5ccccc5)CC4C3C2=O)cc1 (stereo not given)
inactive: NCI-H226 10.4 µM | SNB-75 10.7 µM | EKVX 26.2 µM | SK-OV-3 17.7 µM | OVCAR-5 15.5 µM | HOP-92 15 µM | MDA-MB-231 16.3 µM | MDA-MB-435 12.3 µM | UACC-257 16.8 µM | MOLT-4 3.4 µM | T47D 5.81 µM | NCI/ADR-RES 30.3 µM | COLO 205 8.63 µM | SF-268 6.65 µM | BT-549 24.9 µM | TK-10 32.1 µM

S=C1CC(c2ccccc2)Sc2ccc(Cl)cc2N1 (stereo not given)
inactive: NCI-H226 > 100 µM | RXF 393 2.99 µM | SNB-75 30 µM | EKVX 50.7 µM | SK-OV-3 56.6 µM | OVCAR-5 > 100 µM | MDA-MB-231 47.9 µM | MDA-MB-435 13.4 µM | UACC-257 18.1 µM | MOLT-4 18.7 µM | T47D 59.3 µM | SK-MEL-5 22 µM | NCI/ADR-RES 86.3 µM | COLO 205 63.7 µM | K562 16.2 µM | SF-268 37.9 µM | BT-549 19.9 µM | TK-10 36.8 µM
